These results are taken from ChEMBL document CHEMBL3400005, “Thermodynamic equilibrium solubility measurements in simulated fluids by 96-well plate method in early drug discovery” (Bioorg Med Chem Lett, 2015).

Values after ≈ are worked out from the molar mass of the structure shown.

The conditions of series [1]: buffer, pH 7.4, 24 h.
Series [2] can be described thus: physchem. The settings on record: pH 1.2.
The conditions of series [3]: buffer, 4 h.
A short description of series [4]: physchem. Conditions: pH 6.8.
The conditions of series [5]: buffer, 24 h.
The nature of series [6]: physchem. Conditions: pH 6.8. The source holds these as a separate data set.
Series [7] in a line: physchem. Conditions: pH 1.2. This is another data set of the same source.
The conditions of series [8]: buffer, pH 7.4, 4 h.
For series [9] the following is noted: simulated gi fluid, pH 6.8, 24 h.
For series [10] the following is noted: simulated gi fluid, pH 1.2, 4 h.
For series [11] the following is noted: simulated gi fluid, pH 6.8, 4 h.
The conditions of series [12]: simulated gi fluid, pH 1.2, 24 h.
A short description of series [13]: physchem. Conditions: pH 7.4.
Series [14] in a line: physchem.
The nature of series [15]: physchem. The source holds these as a separate data set.
Series [16] can be described thus: physchem. The source holds these as a separate data set.
The nature of series [17]: physchem. The settings on record: pH 7.4. This is another data set of the same source.

`CC(=O)Nc1ccc(O)cc1` [ACETAMINOPHEN]: the “-log(solubility)” value in [1] amounted to 2.93; in [3], 2.7; in series [5], 2.87; in series [8], 3. Further, the solubility (thermodynamic) (usually solubility found after equilibrating the solid with the medium) at 4 h in “physchem [2]” (simulated gastric fluid) is 1000 µM (≈ 151 µg/mL); in “physchem [6]” (simulated intestinal fluid), 3.31 µM (≈ 0.501 µg/mL). For the same compound, the values for the solubility (thermodynamic) at 24 h in “physchem [4]” (simulated intestinal fluid) and in the series “physchem [7]” (simulated gastric fluid) were 3.31 µM (≈ 0.501 µg/mL) and 1230 µM (≈ 186 µg/mL), respectively.
As to `CCCC1O[C@@H]2C[C@H]3[C@@H]4CCC5=CC(=O)C=C[C@]5(C)[C@H]4[C@@H](O)C[C@]3(C)[C@]2(C(=O)CO)O1` (some centres undefined) [BUDESONIDE], the “-log(solubility)” value is listed as 5.33 and the solubility (usually the concentration that dissolves in the medium under given conditions) is 28 µg/mL (≈ 65 µM). For the same compound, the “-log(solubility)” value in series [1] is reported as 5.27. The “-log(solubility)” value in series [9] is reported as 5.24. In [10], the “-log(solubility)” value was 5.03. For the same compound, in [11], the “-log(solubility)” value was 5.03. Moreover, the “-log(solubility)” value in series [3] was 5.03. For the same compound, in series [5], the “-log(solubility)” value turned out to be 5.23. Further, the “-log(solubility)” value in series [12] is on record as 5.07. Further, the “-log(solubility)” value in series [8] amounted to 5.03.
As to `NC(=O)N1c2ccccc2C=Cc2ccccc21` [CARBAMAZEPINE], the “-log(solubility)” value is on record as 4.29 and the solubility stood at 170 µg/mL (≈ 720 µM). For the same compound, the “-log(solubility)” value in series [1] turned out to be 4.48. In series [9], the “-log(solubility)” value is listed as 4.85. The “-log(solubility)” value in series [10] is 4.07. In addition, the “-log(solubility)” value in series [11] is 4.28. The “-log(solubility)” value in series [3] came to 4.07. In series [5], the “-log(solubility)” value worked out at 4.4. In addition, the “-log(solubility)” value in series [12] is listed as 4.34. The “-log(solubility)” value in series [8] stood at 4.47.
In the case of `COc1cc2c(c(OC)c1OC)-c1ccc(OC)c(=O)cc1[C@@H](NC(C)=O)CC2` [COLCHICINE], the thermodynamic solubility at 4 h in “physchem [2]” (simulated gastric fluid) is 50.1 µM (≈ 20 µg/mL); in “physchem [6]” (simulated intestinal fluid), 200 µM (≈ 79.7 µg/mL). For the same compound, the results for the “-log(solubility)” value in [3] and in series [8] were 3.43 and 3.7, respectively.
For `COc1cc(/C=C/C(=O)CC(=O)/C=C/c2ccc(O)c(OC)c2)ccc1O` [CURCUMIN], the “-log(solubility)” value turned out to be 6.78. Also, the solubility (thermodynamic) at 4 h in the series “physchem [13]” (PBS) is 1.35 µM (≈ 0.497 µg/mL). Also, the solubility (thermodynamic) at 4 h in “physchem [2]” (simulated gastric fluid) was 1.35 µM (≈ 0.497 µg/mL). Moreover, the thermodynamic solubility at 4 h in “physchem [14]” (water) is 1.35 µM (≈ 0.497 µg/mL). Besides, the solubility (thermodynamic) at 4 h in the series “physchem [6]” (simulated intestinal fluid) was 1.35 µM (≈ 0.497 µg/mL).
As to `CC1(C)[C@@H](O)CC[C@]2(C)[C@H]3C(=O)C=C4[C@@H]5C[C@@](C)(C(=O)O)CC[C@]5(C)CC[C@@]4(C)[C@]3(C)CC[C@@H]12` [ENOXOLONE], the thermodynamic solubility at 4 h in “physchem [2]” (simulated gastric fluid) and in the series “physchem [6]” (simulated intestinal fluid) was 1.07 µM (≈ 0.504 µg/mL) each time. Further, the “-log(solubility)” value in [3] was 5.97; in [8] it was 5.67.
`OC(Cn1cncn1)(Cn1cncn1)c1ccc(F)cc1F` [FLUCONAZOLE]: the thermodynamic solubility at 4 h was 0.324 µM (≈ 0.0991 µg/mL) in the series “physchem [13]” (PBS), 1.62 µM (≈ 0.497 µg/mL) in “physchem [2]” (simulated gastric fluid), 0.324 µM (≈ 0.0991 µg/mL) in the series “physchem [14]” (water) and 0.324 µM (≈ 0.0991 µg/mL) in “physchem [6]” (simulated intestinal fluid). The same compound gave a thermodynamic solubility in “physchem [15]” of 0.331 µM (≈ 0.101 µg/mL). Also, the thermodynamic solubility at 24 h in the series “physchem [4]” (simulated intestinal fluid) is 0.891 µM (≈ 0.273 µg/mL); in “physchem [16]” (water), 0.537 µM (≈ 0.164 µg/mL); in the series “physchem [17]” (PBS), 0.468 µM (≈ 0.143 µg/mL); in the series “physchem [7]” (simulated gastric fluid) it was 0.851 µM (≈ 0.261 µg/mL).
Consider `CCC(=O)O[C@]1(C(=O)SCF)[C@H](C)C[C@H]2[C@@H]3C[C@H](F)C4=CC(=O)C=C[C@]4(C)[C@@]3(F)[C@@H](O)C[C@@]21C` [FLUTICASONE PROPIONATE], for which the thermodynamic solubility at 4 h in “physchem [13]” (PBS) was 0.2 µM (≈ 0.0999 µg/mL); in “physchem [2]” (simulated gastric fluid), 1 µM (≈ 0.501 µg/mL); in “physchem [14]” (water) it was 0.2 µM (≈ 0.0999 µg/mL); in “physchem [6]” (simulated intestinal fluid), 1 µM (≈ 0.501 µg/mL). For the same compound, the solubility (thermodynamic) in “physchem [15]” was 0.102 µM (≈ 0.0512 µg/mL). For the same compound, the solubility (thermodynamic) at 24 h is 0.407 µM (≈ 0.204 µg/mL) in “physchem [4]” (simulated intestinal fluid), 0.0195 µM (≈ 0.00976 µg/mL) in “physchem [16]” (water), 0.01 µM (≈ 0.00501 µg/mL) in “physchem [17]” (PBS) and 0.2 µM (≈ 0.0999 µg/mL) in “physchem [7]” (simulated gastric fluid).
For `COc1c2occc2c(OC)c2c(=O)cc(C)oc12` [KHELLIN], the solubility (thermodynamic) at 4 h was 77.6 µM (≈ 20.2 µg/mL) in the series “physchem [13]” (PBS), 30.9 µM (≈ 8.04 µg/mL) in “physchem [2]” (simulated gastric fluid), 77.6 µM (≈ 20.2 µg/mL) in “physchem [14]” (water) and 30.9 µM (≈ 8.04 µg/mL) in the series “physchem [6]” (simulated intestinal fluid). Moreover, the solubility (thermodynamic) in “physchem [15]” was 97.7 µM (≈ 25.4 µg/mL). The solubility (thermodynamic) at 24 h is 58.9 µM (≈ 15.3 µg/mL) in “physchem [4]” (simulated intestinal fluid), 100 µM (≈ 26 µg/mL) in “physchem [16]” (water), 72.4 µM (≈ 18.9 µg/mL) in “physchem [17]” (PBS) and 97.7 µM (≈ 25.4 µg/mL) in the series “physchem [7]” (simulated gastric fluid).
In the case of `Cc1cnc(NC(=O)C2=C(O)c3ccccc3S(=O)(=O)N2C)s1` [MELOXICAM], the thermodynamic solubility at 4 h in “physchem [13]” (buffer) is 35.5 µM (≈ 12.5 µg/mL); in the series “physchem [2]” (simulated gi fluid), 1.41 µM (≈ 0.496 µg/mL); in “physchem [14]” (buffer), 11.5 µM (≈ 4.03 µg/mL); in the series “physchem [6]” (simulated gi fluid) it was 22.9 µM (≈ 8.05 µg/mL). This compound had a thermodynamic solubility in the series “physchem [15]” of 2.29 µM (≈ 0.805 µg/mL). Also, the solubility (thermodynamic) at 24 h in the series “physchem [4]” (simulated gi fluid) was 28.8 µM (≈ 10.1 µg/mL); in “physchem [16]” (buffer) it was 11 µM (≈ 3.85 µg/mL); in “physchem [17]” (buffer) it was 21.9 µM (≈ 7.69 µg/mL); in “physchem [7]” (simulated gi fluid) it was 0.0407 µM (≈ 0.0143 µg/mL).
Turning to `COCCOC(=O)C1=C(C)NC(C)=C(C(=O)OC(C)C)C1c1cccc([N+](=O)[O-])c1` (centres undefined) [NIMODIPINE], the thermodynamic solubility at 4 h is 9.55 µM (≈ 4 µg/mL) in “physchem [2]” (simulated gastric fluid), 4.79 µM (≈ 2 µg/mL) in the series “physchem [14]” (water) and 9.55 µM (≈ 4 µg/mL) in the series “physchem [6]” (simulated intestinal fluid). The compound further showed a solubility (thermodynamic) in the series “physchem [15]” of 5.75 µM (≈ 2.41 µg/mL). In addition, the thermodynamic solubility at 24 h in “physchem [4]” (simulated intestinal fluid) is 10 µM (≈ 4.18 µg/mL); in “physchem [16]” (water) it was 4.07 µM (≈ 1.7 µg/mL); in “physchem [17]” (PBS) it was 0.398 µM (≈ 0.167 µg/mL); in the series “physchem [7]” (simulated gastric fluid), 10.7 µM (≈ 4.48 µg/mL). For the same compound, in series [8], the “-log(solubility)” value stood at 6.62.
`CO[C@H]1/C=C/O[C@@]2(C)Oc3c(C)c(O)c4c(O)c(c(/C=N/N5CCN(C)CC5)c(O)c4c3C2=O)NC(=O)/C(C)=C\C=C\[C@H](C)[C@H](O)[C@@H](C)[C@@H](O)[C@@H](C)[C@H](OC(C)=O)[C@@H]1C` [RIFAMPIN]: the “-log(solubility)” value in series [1] is 4.14; in series [3], 4.31; in series [5] it was 4.21; in series [8], 4.01. The thermodynamic solubility at 4 h in “physchem [2]” (simulated gastric fluid) and in “physchem [6]” (simulated intestinal fluid) was 97.7 µM (≈ 80.4 µg/mL) throughout. Moreover, the solubility (thermodynamic) at 24 h is 72.4 µM (≈ 59.6 µg/mL) in the series “physchem [4]” (simulated intestinal fluid) and 95.5 µM (≈ 78.6 µg/mL) in “physchem [7]” (simulated gastric fluid).
